Results from US7994113B2, “βGBP, compositions comprising βGBP, and related methods and uses thereof” (priority 2007, dated 2011).
Like-named read-outs stand apart in the source and are kept apart here.

Experiments:
[1] = tested on: activated T cells; details: Rabinovich et al., 1997, 1998, 1999; cited from earlier work
[2] = tested on: MCF10A mammary ductal cells; assay: Growth rate and Annexin V apoptosis of naïve MCF10A cells; assay type: cell-based
[3] = tested on: MCF-7 breast cancer cells; assay: Growth rate of naïve MCF-7 cells; assay type: cell-based
[4] = tested on: ERK; assay type: cell-based
[5] = tested on: akt mRNA; assay: Northern blot analysis of akt mRNA; assay type: cell-based; details: for akt mRNA level: 30 nM Hu-r-βGBP
[6] = tested on: SKBR3 breast cancer cells; assay: Growth rate and apoptosis of SKBR3 cells treated with Hu-r-βGBP; assay type: cell-based; details: Hu-r-βGBP 15 or 30 nM added at hour 3 after seeding
Description: (§1) Cell culture: BT474 cells were cultured in DMEM/F12 medium with 10% fetal calf serum (FCS) (Invitrogen, UK) and 20 μg/ml insulin (Sigma, UK); the SKBR3 cells were grown in DMEM medium (Invitrogen UK) plus 10% FCS. Cultures were incubated at 37° C. in a humidified atmosphere of 5% CO2 in air.
(§2) 1×10^5 cells were seeded per 25 cm^2 flask, or 3×10^5 per 75 cm^2 flask. Sufficient numbers of flasks were seeded in parallel to allow for individual flasks to be consumed in the process of monitoring cell numbers (i.e. growth rates), apoptosis, PI3K activity, akt mRNA levels, Akt protein levels and phosphorylated Akt (P-Akt) protein levels as discussed below. Unless otherwise indicated results correspond to one flask of cells.
(§3) Growth rates: Cells were removed from the flasks by trypsinisation and counted in a haemocytometer to assess cell numbers at time points of 1, 2, 3, 4, and 5 days for BT474 cells, SKBR3 cells, MCF10A^V12Ras cells and MCF10A^CTx cells. MCF10A cells were monitored at 1, 2, 3, and 4 days. Cell numbers were determined in triplicate. […]
(§4) Cytofluorimetry: Apoptosis was monitored using four criteria as outlined below. […]
(§5) Redistribution of plasma membrane phosphatidylserine was assessed using Annexin V-FITC (Pharmingen, San Diego, Calif.). […]
(§6) Caspase 3 activity was measured by cleavage of non fluorescent PhiPhiLux to a fluorescent product (OncoImmunin, Mass.). […]

[7] = tested on: class IA PI3K; assay: PI3 kinase assay: immunoprecipitated enzyme from treated cells, PIP3 by competitive ELISA; assay type: cell-based; details: for PI3K activity: 30 nM Hu-r-βGBP
[8] = tested on: LoVo colon cancer cells; assay: Growth rate of LoVo colon cancer cells with Hu-r-βGBP; assay type: cell-based
Description: (§7) To confirm these observations three colon cancer cell lines were investigated, SW480, SW620 and LoVo. Cells were grown in culture and incubated with βGBP at varying concentrations. […] Concentrations as low as 1-2 nM have been observed as effective in inducing apoptosis (FIG. 6). It is possible that in some circumstances even lower concentrations of βGBP may be effective.
(§8) Cell culture: SW480, SW620 and LoVo colon cancer cells were grown in Leibowitz L-15 medium with 10% fetal bovine serum in sealed flasks at 37° C. Hu-r-βGBP was added 3 hrs after seeding cells at a concentration of 1 nM or 2 nM. Control cells were grown without βGBP.
(§9) Growth rates: Cell numbers were measured over a time course of 5 days. Cell numbers were assessed at 0, 1, 2, 3, 4, and 5 days for each cell type incubated in the presence of Hu-r-βGBP. Cell numbers were assessed in triplicate by counting in a haemocytometer as discussed above in Example 1 and compared with cell numbers for control cells grown without βGBP.

[9] = tested on: SW480 colon cancer cells; assay: Growth rate of SW480 colon cancer cells with Hu-r-βGBP; assay type: cell-based
Description: as §7, §8, §9

[10] = tested on: SW620 colon cancer cells; assay: Growth rate of SW620 colon cancer cells with Hu-r-βGBP; assay type: cell-based
Description: as §7, §8, §9

[11] = tested on: MCF10A^CTx cells; assay type: cell-based
[12] = tested on: MCF10A^V12Ras cells; assay: Growth rate and Annexin V apoptosis of MCF10A^V12Ras cells; assay type: cell-based; details: Hu-r-βGBP 15 or 30 nM added at hour 3
[13] = tested on: ST4 (Human malignant T cell leukaemia) cells; assay: ST4 tumour growth in SCID mice, subcutaneous βGBP; assay type: in vivo; details: SCID mice injected s.c. with 5×10^6 ST4 cells; Hu-r-βGBP s.c. day 1 to day 16
Description: 5×10^6 ST4 (Human malignant T cell leukaemia) cells were injected subcutaneously at day 0. Hu-r-βGBP was administered from day 1 to day 16 by subcutaneous injection.
Female SCID mice were housed under standard conditions. Mice were divided into four groups of four. At age 6 weeks 5×10^6 ST4 (Human malignant T cell leukaemia) cells were injected subcutaneously (day 0).
Hu-r-βGBP was obtained as described in Example 1.
βGBP was administered from day 1 to day 16 by individual daily subcutaneous injection. Each group of mice received a different dosage of βGBP. 0 ng/mouse (control), 20 ng/mouse, 200 ng/mouse or 400 ng/mouse
Tumour size was assessed at day 42 or day 90 by calliper measurement.

[14] = tested on: MCF-7^CTx cells; assay type: cell-based
[15] = tested on: Akt; assay: Western blot of phosphorylated (Ser473) Akt and total Akt protein; assay type: cell-based; details: 30 nM Hu-r-βGBP
Description: Western blot analysis: Cells were lysed in 50 mM Tris pH7.4. 150 mM NaCl, 1% TritonX-100, 1 mMPMSF, 2.5 μg/ml leupeptin, 1% aprotinin, 10 mM sodium fluoride, 1 mM sodium vanadate (Sigma, UK). 50 μg of protein were loaded onto 12% polyacrylamide gels. Phosphorylated Akt was detected using 1:1000 anti-phospho-Akt (Ser473) antibody (Cell Signalling Technology, Boston, Mass.) and total Akt1/2 protein was probed with 1:1000 anti-Akt1/2 (H136) (Santa Cruz, Santa Cruz, Calif.). Secondary antibodies conjugated to horseradish peroxidase (HRP) (GE Healthcare, UK) were used at 1:1000 dilution and visualised by enhanced chemiluminescence (GE Healthcare, UK). Actin (Sigma, UK) was used as a loading control.

[16] = tested on: BT474 breast cancer cells; assay: Growth rate and apoptosis of BT474 cells treated with Hu-r-βGBP; assay type: cell-based; details: Hu-r-βGBP 15 or 30 nM added at hour 3 after seeding
Description: as §1, §2, §3, §4, §5, §6

[17] = tested on: breast cancer, ovarian cancer, oral cancer, prostate cancer and leukaemia cells; assay: Screen of pro-apoptotic responses to βGBP in a range of cancer types; assay type: cell-based
Description: As described above βGBP is known to inhibit growth and/or promote apoptosis in cells from a range of cancer types.
In breast cancer, ovarian cancer, oral cancer, prostate cancer and leukaemia cells tested for pro-apoptotic responses to βGBP, the effective dose in cell culture was 15-30 nM.

[18] = MCF10A, MCF10A^V12Ras and MCF10A^CTx cells

GAL-1: homodimers formed from βGBP, a complex with lectin-like characteristics
threshold concentration for apoptotic activity [1]: 4 µg/mL

cholera toxin [reference compound]
cell proliferation [2]: boosted | cell proliferation [3]: accelerated cell proliferation | active ERK levels [4]: raised active ERK levels | akt gene expression [5]: accentuated akt gene expression | akt mRNA levels [5]: more markedly expressed

βGBP: Human recombinant β-galactoside binding protein expressed in E. coli; negative cell cycle regulator, anti-proliferative cytokine
effect on cell replication and cell death [6]: virtually no effect on cell replication until, after 2-3 generation cycles, abrupt cell death was triggered | PI3K activity ([7]; BT474 and SKBR3 cells, already present at hour six, maintained throughout observation): downregulation of PI3K activity | PI3K activity ([7]; MCF10A, MCF10A^V12Ras and MCF10A^CTx cells, delay from 6 to 24 hours with V12 Ras): brought down and maintained PI3K activity below basal levels | decrease of PI3K activity below basal levels at which akt gene expression was negated ([7]; MCF-7^CTx cells, 20 nM Hu-r-βGBP, 10 nM wortmannin or 20 nM LY294002 added at hour 3 from seeding): ~35% | response of cell proliferation to βGBP ([2]; naïve MCF10A cells, Hu-r-βGBP 15 or 30 nM added at hour 3): minor effect | apoptosis after inhibition of PI3K activity and loss of akt gene function ([2]; naïve normal-like MCF10A cells, 30 nM Hu-r-βGBP, Annexin V at day three): did not lead to apoptosis | concentration effective in inducing apoptosis ([8]; LoVo cells, Hu-r-βGBP added 3 hrs after seeding, 5 days): 1 to 2 nM | effective concentration relative to other cancer cell lines (times lower) ([8]; LoVo colon cancer cells versus other cancer cell lines): 15 to 30 times | concentration effective in inducing apoptosis ([9]; SW480 cells, Hu-r-βGBP added 3 hrs after seeding, 5 days): 1 to 2 nM | effective concentration relative to other cancer cell lines (times lower) ([9]; SW480 colon cancer cells versus other cancer cell lines): 15 to 30 times | concentration effective in inducing apoptosis ([10]; SW620 cells, Hu-r-βGBP added 3 hrs after seeding, 5 days): 1 to 2 nM | effective concentration relative to other cancer cell lines (times lower) ([10]; SW620 colon cancer cells versus other cancer cell lines): 15 to 30 times | response of cell proliferation to βGBP [11]: abrupt cell death after 2-3 cell replication cycles | effect on cell growth ([3]; naïve MCF-7 cells, 20 nM Hu-r-βGBP added at hour 3): growth inhibitory effect | response of cell proliferation to βGBP [12]: abrupt cell death after 2-3 cell replication cycles | appearance of tumours [13]: totally prevent the appearance of tumours | ERK phosphorylation [4]: no changes in ERK phosphorylation | cell death in response to βGBP [14]: succumbed to total death ahead of the naive counterparts | phosphorylated Akt and Akt protein ([15]; BT474 and SKBR3 cells, preceded the apoptotic process): loss of phosphorylated Akt, and loss of Akt protein | Akt function (phosphorylated Akt and total Akt protein) [15, 18]: loss of Akt function | effect on cell replication and cell death [16]: virtually no effect on cell replication until, after 2-3 generation cycles, abrupt cell death was triggered | effective dose in cell culture for pro-apoptotic responses [17]: 15 to 30 nM | akt mRNA level ([5]; BT474 and SKBR3 cells, within one day from addition): virtually undetectable | akt mRNA level [5, 18]: virtual absence of akt mRNA | akt gene expression ([5]; MCF-7^CTx cells, 20 nM Hu-r-βGBP): negated
